Here are results for 4 compounds from US20160220527A1, “KINASE INHIBITORS FOR THE TREATMENT OF CANCER” (Pitney Pharmaceuticals Pty Limited, priority 2012, published 2016).

For one series, the system named is CHO. Nature of the series: SRB cell proliferation assay. Format: cell-based. Conditions: Cricetulus griseus, Table 3, AAD series, Chinese hamster ovarian cells. As to the method:
(§1) The human ovarian cancer cell lines OVCAR-3, SKOV-3 and A2780 and primary cells human umbilical vein endothelial cells (HUVEC) and all other cell lines were obtained from the American Type Culture Collection (ATCC) and maintained according to their instructions. Astrocytes and glioma cell lines were kindly gifted by Dr. Kerry McDonald from Lowy Cancer Research Centre, University of New South Wales, Australia.
(§2) Cell proliferation was assessed using the sulforhodamine B (SRB) assay. Cells seeded in 96-well plate (2,000-3,000 cell/well) were treated with MPL (0, 1, 5, 10, 25, 50 and 100 μmol/L) for 72 h. Cells were then fixed, washed and stained with 100 μl of 0.4% (w/v) SRB dissolved in 1% acetic acid. Unbound dye was removed by five washes with 1% acetic acid before air drying. Bound SRB was solubilized with 100 μl of 10 mM Tris base (pH 10.5) and the absorbance read at 570 nm. Exactly the same procedure was used to assess MPL-SO2. Both agents were dissolved in ethanol and diluted with media to give the final concentrations required for cell culture assays.

The test system of the next series is HUVEC. Nature of the series: SRB cell proliferation assay. Format: cell-based. Conditions: Homo sapiens, Table 3, AAD series, human umbilical vein endothelial cells. As to the method:
as §1, §2

The next series relates to OVCAR-3. The experiment in a line: SRB cell proliferation assay. The conditions noted are these: Table 3, AAD series, human epithelial ovarian cancer. The format is cell-based. As to the method: as §1, §2
A further series relates to A2780. Nature of the series: SRB cell proliferation assay. Conditions: Table 3, AAD series, human epithelial ovarian cancer. The format is cell-based. As to the method: as §1, §2
Series [1] concerns cdk2, cdk4, cyclins A, and E. The experiment in a line: Western blot of cell cycle regulatory proteins. The conditions noted are these: MPL 0, 5, 10, 25 μM. Format: cell-based. As to the method:
Protein expression in cells was determined using western blot analysis. After treatment with the indicated concentrations of MPL, cell lysates were prepared and probed with antibodies for cdk2, cdk4, cyclin A, cyclin E, PARP-1 (1:1000 dilutions; Cell Signalling Technology), and p53 (1:200 dilutions; Santa Cruz Biotechnology).
(In western blotting, separated proteins are transferred to a membrane and probed.)

For series [2] the following is noted: mammals; cited from earlier work.
Series [3] has as its system OVCAR-3 or A2780 cells. The experiment in a line: Cellular ATP levels and ADP/ATP ratio. Format: cell-based, human.
The subject of a further series is cancer cell-lines. The experiment in a line: Thymidine incorporation. Format: cell-based. (Uptake of a labelled nucleoside into DNA is a usual measure of proliferation.)
Series [4] has as its system OVCAR-3 or A2780 cells. Nature of the series: Colony formation assay. The format is cell-based, human. Conditions: higher concentrations of MPL; 72 h exposure, 2 weeks drug free. As to the method: For colony formation assay, 5×10^6 cells, such as OVCAR-3 or A2780 cells, were plated in 100 mm Petri dishes and allowed to attach overnight. Media were aspirated off and exponentially growing cells were incubated with various concentrations of MPL for 72 h. At this point, the medium was aspirated, the dishes were washed with PBS, and drug free medium was added to each plate. Media were changed twice weekly for 3 weeks. Following this, plates were gently washed with PBS and cells were fixed with 100% ethanol and stained with a 0.5% solution of filtered crystal violet. Colonies consisting of more than 50 cells were counted under an inverted microscope.
To determine the effect of MPL on cell integrity and capacity to rid itself from drug effects following drug exposure and withdrawal, cells were incubated with MPL (0, 5, 10, 25 μM) for 72 h, washed with PBS, transferred to agar plates, cultured with growth medium and incubated under standard conditions for 2 weeks. Cells were then fixed with 100% methanol and stained with 1% crystal violet. Colonies (Cluster of cells greater than 50) were counted under microscope (magnification ×5). Number of colonies counted for different experimental groups is expressed as percentage of the control (FIG. 14).

A further series relates to nicotinic receptors. The experiment in a line: MPL antiproliferative effect after pre-treatment with nicotinic agonists or antagonists. The format is cell-based. Conditions: 30 min pre-treatment, MPL 5 μM, 72 h. As to the method: Cells were pre-treated (30 min) with increasing concentrations of nicotine, carbachol or the receptor antagonists, atropine, mecamylamine, tubocurarine, and α-bungarotoxin. MPL (5 μM) was added and left in the cell culture incubator for 72 h. Each drug concentration was tested in quadruplicate and each experiment was repeated twice. Combine values (mean±SEM) are presented as % control.

In a further series the test system is U87 glioma cells. The experiment in a line: Autophagy (vacuole formation, LC3-II). The format is cell-based. The conditions noted are these: chemo-resistant U87 glioma cells.
In a further series the test system is SW-876. The experiment in a line: SRB cell proliferation assay. Format: cell-based. The conditions noted are these: SW-876, liposarcoma. As to the method: as §1, §2
A further series deals with T98G. The experiment in a line: SRB cell proliferation assay. The format is cell-based. The conditions noted are these: Homo sapiens, glioma. As to the method:
as §1, §2

Another series has as its system HT-29 5m11. The experiment in a line: SRB cell proliferation assay. Conditions: Homo sapiens; HT-29 5m11, colorectal cancer. The format is cell-based. As to the method: as §1, §2
A further series relates to HT-29. The experiment in a line: SRB cell proliferation assay. The format is cell-based. The conditions noted are these: Homo sapiens; HT-29, colorectal cancer. As to the method: as §1, §2
The subject of a further series is HaCat. The experiment in a line: SRB cell proliferation assay. Format: cell-based. Conditions: Homo sapiens, keratinocyte. As to the method: as §1, §2
In another series the test system is MCF-7. Nature of the series: SRB cell proliferation assay. Format: cell-based. Conditions: Homo sapiens, MCF7, MCF-7, breast cancer, 72 h. As to the method: as §1, §2
A further series relates to HCT-116. Nature of the series: SRB cell proliferation assay. The format is cell-based. The conditions noted are these: Homo sapiens; HCT-116, colorectal cancer. As to the method: as §1, §2
Another series has as its system LN-18. The experiment in a line: SRB cell proliferation assay. The format is cell-based. The conditions noted are these: Homo sapiens; LN-18, glioma. As to the method: as §1, §2
The test system of a further series is cancer cell lines. The experiment in a line: SRB cell proliferation assay, comparison across cell lines. Format: cell-based. As to the method:
as §2

Another series concerns OVCAR-3 tumors. The experiment in a line: s.c. OVCAR-3 xenografts in nude mice. The conditions noted are these: for s.c. tumor growth: i.p., three times weekly. The format is in vivo. As to the method: Female nude mice (6 weeks old) were purchased from Biological Resources (University of New South Wales). Institutional animal ethics approvals covered procedures carried out on mice. Briefly, 2.5×10^6 log-phase growing OVCAR-3 cells were injected s.c. into the left flank of each mouse. Animals were weighed once weekly while their tumor volumes were determined twice weekly. Tumor growth was monitored by caliper measurements of orthogonal diameters, and the estimated tumor volume was calculated based on the formula […], where width is the shorter of the two orthogonal measurements. Based on institutional ethics approval, mice were euthanized before the tumor volume reached 500 mm3. Treatment was initiated on day 8 post tumor cell inoculation when mice were randomized and assigned to one of MPL or vehicle treated groups (5-6 mice per group). MPL was suspended in […] methylcellulose (0.5% w/v HPMC), sterilized by sonnicator and administered every other day either intraperitoneally (i.p) or orally as gavage (100 μL).
In the first pilot trial, the drug was administered i.p. at 2.5 or 25 mg/kg body weight, three times weekly for 2 weeks.
Following the outcome, in the next set of animals, the dose was increased to 25 and 50 mg/kg, three times weekly.
In the last (third) pilot study, mice were treated orally. The doses administered were 50 and 100 mg/kg three times weekly. In all these trials, mice in control groups received similar volume of the vehicle (0.5% HPMC). Tumor histology/immunohistochemistry was performed on formalin fixed tumor slices according to standard procedures.

The subject of series [5] is OVCAR-3 or A2780 cells. Nature of the series: Cell cycle analysis by flow cytometry. Format: cell-based, human. Conditions: 25 μM MPL. As to the method: The effect of MPL on the cell cycle was determined using standard flow cytometry analysis protocols and procedures. Briefly, 0.7×10^6 million cells seeded in 25 cm^3 flasks and allowed to adhere overnight were treated with MPL for 24 or 48 h. Cells were collected with trypsinization and pooled with the cells floating in the medium. The cell suspensions were centrifuged, washed with PBS and fixed with methanol. Cells were then washed, resuspended in propodium iodide and ribonuclease A in PBS for 30 min at room temperature and analyzed by flow cytometry (Becton Dickinson FACSort).
A general note: In flow cytometry, cells or beads pass a laser one at a time.

The structures appear in SMILES notation.

On to `CC(C#N)(COc1ccccc1Cl)NC(=O)c1ccc(C(F)(F)F)cc1` (centres unmarked) [AAD 450], for which the IC50 in the series on CHO worked out at 45.9 µM; in the series on HUVEC it was 96.5 µM; in the series on OVCAR-3 it was 23.9 ± 1.45 µM; in the series on A2780 it was 33.5 ± 8.5 µM.

On to `C[C@](C#N)(COc1cc(C#N)ccc1C(F)(F)F)NC(=O)c1ccc(SC(F)(F)F)cc1` [MPL, N-[(1S)-1-cyano-2-(5-cyano-2-trifluoromethyl-phenoxy)-1-methyl-ethyl]-4-trifluoromethylsulfanyl-benzamide], for which the “expression of cell cycle regulatory proteins” value in series [1] is “lower levels of cdk2, cdk4, cyclins A, and E”. The dosage well tolerated in series [2] is on record as 1000 mg of MPL per kg of body weight per 24 hours. In the series with OVCAR-3 or A2780 cells [3], the “cellular ratio of ADP/ATP” value is “reduces the cellular ratio of ADP/ATP”. Moreover, in the series on cancer cell-lines, the “thymidine incorporation into the cell (DNA synthesis)” value is reported as “Blocks thymidine incorporation”. Also, the clonogenic ability entry in the series on OVCAR-3 or A2780 cells [4] is recorded as “almost complete loss of clonogenic ability”. Besides, the “MPL-induced inhibition of proliferation after pre-treatment with nicotinic agonists or antagonists” value in the series with nicotinic receptors was “neither positively nor negatively affected”. Also, in the series with U87 glioma cells, the “expression of LC3-II (autophagy)” value was “increased expression of LC3-II in a concentration-dependent manner”. The IC50 in the series with SW-876 was found to be 14.6 µM; in the series on T98G, 18.2 ± 0.61 µM; in the series with HT-29 5m11, 10.4 µM; with HT-29, 5.86 ± 0.2 µM; with HaCat it was 21.2 ± 3.2 µM; with MCF-7, 15.4 ± 1.1 µM. Further, the IC50 in the series on HCT-116 was 10.5 ± 0.02 µM; in the series on LN-18 it was 9.38 ± 0.79 µM. Also, the “sensitivity of chemo-resistant cell lines to antiproliferative action” value in the series with cancer cell lines (ovarian chemo-resistant, glioma temozolomide resistant, breast cancer tamoxifen resistant cells) is listed as “sensitive”. The tumor tissue histology result in the series with OVCAR-3 tumors (MPL treated tumors from the in vivo trials) is reported as “extensive necrosis”. The s.c. tumor growth result in the series on OVCAR-3 tumors (first trial, 25 mg/kg, female nude mice) is given as “particularly effective”; with OVCAR-3 tumors (second trial, 50 mg/kg compared with 25 mg/kg), “more effective in retarding tumor growth”. In the series on OVCAR-3 or A2780 cells [5], the “percentage of cells in G2-M phase” value is recorded as “more than three times higher”.

As for `C[C@](C#N)(COc1cc(C#N)ccc1C(F)(F)F)NC(=O)c1ccc(S(=O)(=O)C(F)(F)F)cc1` [MPL-SO2, monepantel sulphone], in the series with cancer cell lines (SRB proliferation assay), the “potency compared with MPL” value is listed as “as potent as MPL”.

For the compound `CC(C#N)(COc1cc(Cl)ccc1Cl)NC(=O)c1ccc(OC(F)(F)F)cc1` (centres unmarked) [AAD 1154], the IC50 came out at 34.8 µM with CHO, 61.1 µM in the series on HUVEC, 20.5 ± 0.5 µM with OVCAR-3 and 28 ± 4.5 µM in the series with A2780.

A word on the IC50: it is the concentration that inhibits the measured activity by half. Read a low IC50 as inhibition by little substance.
